Measured values published in PMC9232501, “Results of the phase I CCTG IND.231 trial of CX-5461 in patients with advanced solid tumors enriched for DNA-repair deficiencies” (Nature Communications, 2022).
Several values for one entry are separate records, joined by “and”; a condition that tells them apart may be missing. Equal values may be shown once.

Columns and labels:
HCT116 cells [1] = test: HCT116 cytotoxicity (WST-1 assay) with and without UVA radiation; format: cell-based, Human; conditions: for WST-1 raw signal (Figure 5c): replicates
Description: (§1) Fig. 5 Comparison of G4 ligand photosensitization. […] Vertical axis, fractional survival, horizontal axis log10 drug concentration (M) (f) Representative images of CPD immunofluorescent staining under UV and drug treatment conditions for U2OS cells, quantified from biological duplicates in (g) (h) Scale bar = 100um. U2OS cells were treated with drug or vehicle control, then immediately irradiated with UVA 125 mJ/cm^2; and fixed 1 h later for immunofluorescence staining with CPD antibody. g Distribution of mean intensity of CPD level per cell (total n = in labels), with two biological repeats per condition. Vertical axis, mean CPD intensity per cell, horizontal axis, conditions (h) WT or KO XPA HAP1 cells assayed for cytotoxicity. Vertical axis, fractional survival (WST-1 assay). The horizontal axis, log10 drug concentration (M). Error bars = standard deviation of the mean. Three biological repeats per condition.
(§2) Human epidermal keratinocytes (HEKa) cells were sourced from Thermo Fisher Scientific, and were grown in EpiLife™ Medium with HKGS. HAP WT and XPA knockout cell lines (Horizon Discovery) were cultured in IMDM, 10% FCS. Human HCT116 cells, U2OS cells (ATCC) were grown in McCoy’s 5 A medium with 10% FBS and L-glutamine. All cell lines are mycoplasma free and have been authenticated by STR or SNP profiling. CX-5461 was provided by Senhwa Biosciences, Inc. PDS is from Sigma-Aldrich, BRACO-19 from Alfa Chemistry, PhENDC3 is from Sigma-Aldrich, γ -H2AX antibody from Abcam (1:1000 for IF) and CPD antibody (1:1500) from Cosmo Bio Ltd. (Catalog number: CAC-NM-DAD-001). The WST-1 assay was performed as previously described, γ H2AX foci staining was performed as previously described. Immunofluorescence staining of CPD was performed according to the protocol from the manufacturer (Cosmo Bio Ltd).

U2OS cells = test: CPD (cyclobutane pyrimidine dimer) immunofluorescence after UVA 125 mJ/cm^2; format: cell-based, Human; conditions: 1 h compound exposure
Description: as §1
Human epidermal keratinocytes (HEKa) cells were sourced from Thermo Fisher Scientific, and were grown in EpiLife™ Medium with HKGS. HAP WT and XPA knockout cell lines (Horizon Discovery) were cultured in IMDM, 10% FCS. Human HCT116 cells, U2OS cells (ATCC) were grown in McCoy’s 5 A medium with 10% FBS and L-glutamine. All cell lines are mycoplasma free and have been authenticated by STR or SNP profiling. […]

[2] = tested on: γ-H2AX (double-stranded DNA breaks); test: γ-H2AX immunofluorescent staining with and without UVA radiation; format: cell-based; conditions: CX5461 10^-8M, 5x10-8M; PDS 20 x 10^-6M
Description: as §2
(§3) Supplementary Figures and Tables
(§4) Supplementary Figure 1. UVA radiation increased double-stranded DNA breaks and ROS.
(§5) Representative pictures of g -H2AX immunofluorescent staining with and without UVA radiation, for […]
condition, quantified in (b) Quantile and mean intensity of g-H2AX level per cell, vertical axis. UV and drug factor conditions, horizontal axis. […] Number of cells as in Figure 5 g (c) The ratio of ROS level measured after UVA irradiation versus before UVA irradiation was calculated. […]

HCT116 cells [3] = test: ROS measurement with H2DCFDA before/after UVA 125 mJ/cm^2; format: cell-based, Human; conditions: CX-5461 0.1 μM or PDS 10 μM for 1 h
Description: ROS measurement with H2DCFDA: HCT116 cells were treated with vehicle, CX-5461 0.1 μM or PDS 10 μM for 1 h, then were added with H2DCFDA for 45 min before initial fluorescence measurement. Cells were then irradiated with UVA 125 mJ/cm^2, and immediately sent for a second fluorescent measurement. The ratio of the second and the first fluorescent measurement was calculated as the level of ROS induced by UVA. Assays were performed in the 1-hour time frame within which UV damage manifests, in contrast to G4 ligand-induced damage which takes 3–4 h to be measurable.
as §3, §4, §5
condition, quantified in (b) Quantile and mean intensity of g-H2AX level per cell, vertical axis. UV and drug factor conditions, horizontal axis. Experiments were repeated two times (biological duplicates) and similar results were obtained. Number of cells as in Figure 5 g (c) The ratio of ROS level measured after UVA irradiation versus before UVA irradiation was calculated. Biological triplicates. The horizontal bar = median. ***P<0.0001, Welch’s t-test; n=8
(1 picture or pasted object on this page, not shown here)

[4] = tested on: BRCA2 and BRCA1-deficient tumor models; conditions: cited from earlier work

Question: Which “potentiation of UVA-induced cytotoxicity” value (HCT116 cells [1]; UV 5 mJ/cm^2 and 125 mJ/cm^2) does the source give for NCCOc1cc(C(=O)Nc2cc(OCCN)c3ccccc3n2)nc(C(=O)Nc2cc(OCCN)c3ccccc3n2)c1 [PDS, pyridostatin] here?
Answer: Its value is “not”.

Question: What about the “WST-1 raw signal (Figure 5c)” value (HCT116 cells [1]; conc 1.56e-6, 5mJ/cm2 UV) of the same compound?
Answer: The value was 3.2786 and 3.1337.

Question: What about the “WST-1 raw signal (Figure 5c)” value (HCT116 cells [1]; conc 1.56e-6, 125 mJ/cm2 UV) of the same compound?
Answer: Its value is 2.9405 and 3.1793.

Question: And the “WST-1 raw signal (Figure 5c)” value (HCT116 cells [1]; conc 1.56e-6, no UV)?
Answer: The value was 3.373 and 3.3554.

Question: And the “WST-1 raw signal (Figure 5c)” value (HCT116 cells [1]; conc 3.13e-6, 5mJ/cm2 UV)?
Answer: The value was 2.8932 and 3.2752.

Question: What about the “WST-1 raw signal (Figure 5c)” value (HCT116 cells [1]; conc 3.13e-6, 125 mJ/cm2 UV) of the same compound?
Answer: The value was 3.2783 and 2.5154.

Question: What about the “WST-1 raw signal (Figure 5c)” value (HCT116 cells [1]; conc 3.13e-6, no UV) of the same compound?
Answer: The value was 3.1639 and 3.0204.

Question: And the “WST-1 raw signal (Figure 5c)” value (HCT116 cells [1]; conc 6.25e-6, 5mJ/cm2 UV)?
Answer: The value was 3.1968 and 2.1952.

Question: What about the “WST-1 raw signal (Figure 5c)” value (HCT116 cells [1]; conc 6.25e-6, 125 mJ/cm2 UV) of the same compound?
Answer: Its value is 2.1994 and 1.9427.

Question: What about the “WST-1 raw signal (Figure 5c)” value (HCT116 cells [1]; conc 6.25e-6, no UV) of the same compound?
Answer: The value was 2.8791 and 2.2497.

Question: What about the “WST-1 raw signal (Figure 5c)” value (HCT116 cells [1]; conc 1.25e-5, 5mJ/cm2 UV) of the same compound?
Answer: The value was 0.8793 and 1.0754.

Question: And the “WST-1 raw signal (Figure 5c)” value (HCT116 cells [1]; conc 1.25e-5, 125 mJ/cm2 UV)?
Answer: The value was 1.8196 and 1.0192.

Question: And the “WST-1 raw signal (Figure 5c)” value (HCT116 cells [1]; conc 1.25e-5, no UV)?
Answer: Its value is 1.2465 and 0.8301.

Question: And the “WST-1 raw signal (Figure 5c)” value (HCT116 cells [1]; conc 2.5e-5, 5mJ/cm2 UV)?
Answer: Its value is 0.2188 and 0.2466.

Question: And the “WST-1 raw signal (Figure 5c)” value (HCT116 cells [1]; conc 2.5e-5, 125 mJ/cm2 UV)?
Answer: The value was 0.4428 and 0.3571.

Question: What about the “WST-1 raw signal (Figure 5c)” value (HCT116 cells [1]; conc 2.5e-5, no UV) of the same compound?
Answer: The value was 0.23 and 0.2464.

Question: And the “WST-1 raw signal (Figure 5c)” value (HCT116 cells [1]; conc 5e-5, 5mJ/cm2 UV)?
Answer: Its value is 0.1582 and 0.148.

Question: What about the “WST-1 raw signal (Figure 5c)” value (HCT116 cells [1]; conc 5e-5, 125 mJ/cm2 UV) of the same compound?
Answer: The value was 0.1729 and 0.1634.

Question: What about the “WST-1 raw signal (Figure 5c)” value (HCT116 cells [1]; conc 5e-5, no UV) of the same compound?
Answer: The value was 0.1562 and 0.1551.

Question: What about the “WST-1 raw signal (Figure 5c)” value (HCT116 cells [1]; conc 1.95E-07, 5mJ/cm2 UV) of the same compound?
Answer: Its value is 3.319 and 3.3471.

Question: And the “WST-1 raw signal (Figure 5c)” value (HCT116 cells [1]; conc 1.95E-07, 125 mJ/cm2 UV)?
Answer: Its value is 2.9662 and 3.2767.

Question: What about the “WST-1 raw signal (Figure 5c)” value (HCT116 cells [1]; conc 1.95E-07, no UV) of the same compound?
Answer: Its value is 3.3384 and 3.3351.

Question: What about the “WST-1 raw signal (Figure 5c)” value (HCT116 cells [1]; conc 3.91E-07, 5mJ/cm2 UV) of the same compound?
Answer: Its value is 3.2173 and 2.6279.

Question: And the “WST-1 raw signal (Figure 5c)” value (HCT116 cells [1]; conc 3.91E-07, 125 mJ/cm2 UV)?
Answer: The value was 3.2982.

Question: What about the “WST-1 raw signal (Figure 5c)” value (HCT116 cells [1]; conc 3.91E-07, no UV) of the same compound?
Answer: Its value is 3.3319 and 2.4545.

Question: What about the “WST-1 raw signal (Figure 5c)” value (HCT116 cells [1]; conc 7.81E-07, 5mJ/cm2 UV) of the same compound?
Answer: Its value is 3.0666 and 2.7778.

Question: What about the “WST-1 raw signal (Figure 5c)” value (HCT116 cells [1]; conc 7.81E-07, 125 mJ/cm2 UV) of the same compound?
Answer: The value was 3.2287 and 3.2519.

Question: What about the “WST-1 raw signal (Figure 5c)” value (HCT116 cells [1]; conc 7.81E-07, no UV) of the same compound?
Answer: The value was 3.286 and 3.3592.

Question: What about the “WST-1 raw signal (Figure 5c)” value (HCT116 cells [1]; conc 9.77E-08, 5mJ/cm2 UV) of the same compound?
Answer: Its value is 3.3085 and 3.2577.

Question: And the “WST-1 raw signal (Figure 5c)” value (HCT116 cells [1]; conc 9.77E-08, 125 mJ/cm2 UV)?
Answer: The value was 3.2825 and 3.2983.

Question: What about the “WST-1 raw signal (Figure 5c)” value (HCT116 cells [1]; conc 9.77E-08, no UV) of the same compound?
Answer: Its value is 3.2977 and 3.3288.

Question: What about the “potentiation of CPD formation by UVA” value (U2OS cells) of the same compound?
Answer: Its value is “not”.

Question: What about the “DNA damage (γ-H2AX) in the presence of UVA” value [2] of the same compound?
Answer: Its value is “not”.

Question: What about the “ROS in the presence of UVA (ratio after/before UVA)” value (HCT116 cells [3]) of the same compound?
Answer: Its value is “not”.

Question: And the “synthetic lethality with loss of HR repair” value [4]?
Answer: Its value is “synthetic lethal”.
